#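 Test compounds were applied to cells in 96-well plates for 48 hours at 5 doses. Here, GI50 denotes the concentration required for 50% inhibition of growth. TGI: concentration producing complete growth inhibition.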
# Columns and labels:
# Assay in all cases: inhibition of tumour cell growth, NCI panel, 48 h
# [1] = test system: SNB-19 CNS
# [2] = test system: SF-539 CNS
# [3] = test system: SN12C renal
# [4] = test system: MDA-MB-435
# [5] = test system: DU-145 prostate
# [6] = test system: T-47D breast
# [7] = test system: SF-295 CNS
# [8] = test system: IGROV1 ovarian
# [9] = test system: UACC-257 melanoma
# [10] = test system: EKVX NSCLC
SMILES,TGI [1],TGI [2],TGI [3],TGI [4],TGI [5],TGI [6],TGI [7],TGI [8],TGI [9],TGI [10],GI50 [1],GI50 [2],GI50 [4],GI50 [5],GI50 [6],GI50 [7],GI50 [8],GI50 [9],GI50 [10]
CN(C)C(=S)SCc1ccccc1,> 100 µM,> 100 µM,> 100 µM,> 100 µM,> 100 µM,60.6 µM,> 100 µM,> 100 µM,> 100 µM,> 100 µM,–,–,–,–,–,–,–,–,–
C/C(=C\c1ccc2c(c1)OCO2)[N+](=O)[O-],6.98 µM,9.24 µM,15.9 µM,5.34 µM,8.05 µM,5.14 µM,6.27 µM,5.89 µM,5.54 µM,16.4 µM,–,–,–,–,–,–,–,–,–
C(=N/Nc1ccccn1)/c1cccnc1,> 100 µM,> 100 µM,> 100 µM,> 100 µM,> 100 µM,> 100 µM,> 100 µM,> 100 µM,> 100 µM,> 100 µM,–,–,–,–,–,–,–,–,–
CCOC(=O)c1cc(Cl)ccc1OC(N)=O,> 100 µM,> 100 µM,> 100 µM,–,–,–,> 100 µM,> 100 µM,> 100 µM,> 100 µM,–,–,–,–,–,–,–,–,–
Nc1nc(Cl)nc2c1ncn2C1CCC(CO)O1 (stereo not drawn),> 100 µM,–,> 100 µM,> 100 µM,> 100 µM,> 100 µM,> 100 µM,> 100 µM,> 100 µM,–,–,–,–,–,–,–,–,–,–
Clc1ccc(CSCc2ccc(Cl)cc2Cl)c(Cl)c1,> 100 µM,> 100 µM,> 100 µM,> 100 µM,> 100 µM,> 100 µM,> 100 µM,> 100 µM,64.7 µM,> 100 µM,–,–,–,–,–,–,–,–,–
N#CC(C#N)=Cc1ccc(-c2ccc(-c3nc4ccccc4s3)cc2)s1,> 100 µM,36.3 µM,–,64.5 µM,44.8 µM,73.8 µM,59.1 µM,27.1 µM,> 100 µM,> 100 µM,30 µM,18.3 µM,25.5 µM,17.7 µM,18.2 µM,22.6 µM,4.62 µM,65.3 µM,29.6 µM
CC(C)(C)C1=NN=C2c3ccccc3C(=O)C21 (stereo not drawn),> 100 µM,> 100 µM,> 100 µM,> 100 µM,> 100 µM,> 100 µM,> 100 µM,> 100 µM,> 100 µM,> 100 µM,–,–,–,–,–,–,–,–,–
